Where two headings read alike, the source gives them in different places.
What was measured:
MC3 (h) = biological target: T1, MC3 (h) (Homo sapiens, UniProt P41968); format: binding
T1 construct: host or cells: CHO cells

[1] = tested on: sigma (non-selective) (h); format: binding, human; settings: 1.0E-06 M
5-HT7 (h) = 5-HT7 (h) (Homo sapiens, UniProt P34969); assay: biochemical
NK1 (h) = biological target: T2, NK1 (h) (Homo sapiens, UniProt P25103); format: binding; settings: 1.0E-06 M
T2 construct: (endogenous); host or cells: U-373MG cells

[2] = biological target: T3, phosphatase 1B (h) (PTP1B) (Homo sapiens, UniProt P18031); assay: enzyme assay; format: biochemical; settings: 1.0E-06 M
T3 construct: host or cells: E. coli
T3 sequence (P18031 1-435): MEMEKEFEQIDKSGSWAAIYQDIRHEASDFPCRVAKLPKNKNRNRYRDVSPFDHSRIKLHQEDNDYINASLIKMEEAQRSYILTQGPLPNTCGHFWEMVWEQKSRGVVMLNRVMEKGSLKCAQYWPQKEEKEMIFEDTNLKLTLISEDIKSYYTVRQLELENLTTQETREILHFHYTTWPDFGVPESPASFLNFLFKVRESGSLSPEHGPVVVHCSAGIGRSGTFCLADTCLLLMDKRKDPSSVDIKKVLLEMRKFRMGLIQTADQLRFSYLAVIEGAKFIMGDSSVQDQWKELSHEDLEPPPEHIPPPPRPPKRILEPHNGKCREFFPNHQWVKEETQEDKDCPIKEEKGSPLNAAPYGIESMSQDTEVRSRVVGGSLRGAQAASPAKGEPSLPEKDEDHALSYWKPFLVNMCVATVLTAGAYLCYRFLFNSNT

CaMK2α (h) = CaMK2α (h) (Homo sapiens, UniProt Q9UQM7); assay: enzyme assay; format: biochemical; settings: 1.0E-06 M
M1 (h) = biological target: T4, M1 (h) (Homo sapiens, UniProt P11229); assay: biochemical; format: binding; settings: 1.0E-06 M
T4 construct: host or cells: CHO cells
T4 sequence (P11229 1-460): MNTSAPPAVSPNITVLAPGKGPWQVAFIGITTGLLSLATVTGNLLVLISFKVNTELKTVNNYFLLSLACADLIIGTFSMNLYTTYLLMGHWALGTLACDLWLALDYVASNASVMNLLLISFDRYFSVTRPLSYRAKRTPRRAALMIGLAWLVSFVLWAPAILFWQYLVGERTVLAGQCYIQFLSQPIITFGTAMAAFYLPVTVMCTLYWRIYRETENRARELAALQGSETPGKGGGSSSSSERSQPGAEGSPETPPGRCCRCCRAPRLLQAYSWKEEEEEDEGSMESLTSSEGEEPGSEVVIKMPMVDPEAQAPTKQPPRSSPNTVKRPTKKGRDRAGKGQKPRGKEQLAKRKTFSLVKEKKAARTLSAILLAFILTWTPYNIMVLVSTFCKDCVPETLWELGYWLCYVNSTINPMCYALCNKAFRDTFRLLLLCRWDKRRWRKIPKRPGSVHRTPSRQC

β3 (h) = biological target: T5, β3 (h) (Homo sapiens, UniProt P13945); format: binding; settings: 1.0E-06 M
T5 construct: (endogenous); host or cells: SK-N-MC cells

PCP = format: binding, rat; settings: 1.0E-06 M
hERG = hERG (Homo sapiens, UniProt Q12809); assay: Ion channel selectivity patch clamp
rTRPC5 = rTRPC5 (Rattus norvegicus, UniProt Q8VD38); assay: Whole-cell manual patch clamp; format: cell-based
Kv1.3 = biological target: T6, Kv1.3 (Homo sapiens, UniProt P22001); assay: Ion channel selectivity patch clamp; format: cell-based; settings: Voltage (+20 mV)
T6 construct: expressed in transfected cells

MC1 = biological target: T7, MC1 (Mus musculus, UniProt Q01727); format: binding; settings: 1.0E-06 M
T7 construct: (endogenous); host or cells: B16-F1 cells

M3 (h) = M3 (h) (Homo sapiens, UniProt P20309); assay: biochemical
MC4 (h) = biological target: T8, MC4 (h) (Homo sapiens, UniProt P32245); format: binding; settings: 1.0E-06 M
T8 construct: host or cells: CHO cells

ATPase (Na+/K+) = assay: enzyme assay; format: biochemical, porcine; settings: 1.0E-06 M
[3] = C57BL/6, mouse, in vivo
GABA transaminase = biological target: T9, GABA transaminase (Rattus norvegicus, UniProt P50554); assay: enzyme assay; format: biochemical; settings: 1.0E-06 M
T9 construct: rat brain; from tissue; host or cells: rat brain

[4] = Swiss Webster, mouse, iv, 1 mg/kg
[5] = Swiss Webster, mouse, po, 10 mg/kg
[6] = male, C57BL/6, mouse, iv, 1 mg/kg
[7] = male, C57BL/6, mouse, po, 10 mg/kg

T5 sequence (P13945 whole entry): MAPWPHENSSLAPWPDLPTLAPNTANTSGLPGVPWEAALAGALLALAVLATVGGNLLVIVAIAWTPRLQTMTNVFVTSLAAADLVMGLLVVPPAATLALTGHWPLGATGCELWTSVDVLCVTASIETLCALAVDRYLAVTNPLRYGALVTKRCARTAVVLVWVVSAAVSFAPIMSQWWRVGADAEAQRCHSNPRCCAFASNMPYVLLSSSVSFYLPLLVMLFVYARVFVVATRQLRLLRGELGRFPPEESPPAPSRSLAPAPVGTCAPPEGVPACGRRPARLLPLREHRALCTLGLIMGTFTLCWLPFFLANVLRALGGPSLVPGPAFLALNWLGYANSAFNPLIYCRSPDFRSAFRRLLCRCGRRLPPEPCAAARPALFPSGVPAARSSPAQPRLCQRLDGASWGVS
T7 sequence (Q01727 whole entry): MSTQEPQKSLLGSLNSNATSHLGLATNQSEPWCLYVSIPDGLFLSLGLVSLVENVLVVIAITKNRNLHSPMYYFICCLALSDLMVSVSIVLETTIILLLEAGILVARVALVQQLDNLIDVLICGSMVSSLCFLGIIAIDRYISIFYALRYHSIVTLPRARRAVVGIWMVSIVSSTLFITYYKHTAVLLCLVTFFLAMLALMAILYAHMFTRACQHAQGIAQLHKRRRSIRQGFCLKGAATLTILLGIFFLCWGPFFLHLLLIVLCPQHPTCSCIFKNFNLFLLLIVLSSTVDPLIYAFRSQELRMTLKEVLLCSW
T2 sequence (P25103 whole entry): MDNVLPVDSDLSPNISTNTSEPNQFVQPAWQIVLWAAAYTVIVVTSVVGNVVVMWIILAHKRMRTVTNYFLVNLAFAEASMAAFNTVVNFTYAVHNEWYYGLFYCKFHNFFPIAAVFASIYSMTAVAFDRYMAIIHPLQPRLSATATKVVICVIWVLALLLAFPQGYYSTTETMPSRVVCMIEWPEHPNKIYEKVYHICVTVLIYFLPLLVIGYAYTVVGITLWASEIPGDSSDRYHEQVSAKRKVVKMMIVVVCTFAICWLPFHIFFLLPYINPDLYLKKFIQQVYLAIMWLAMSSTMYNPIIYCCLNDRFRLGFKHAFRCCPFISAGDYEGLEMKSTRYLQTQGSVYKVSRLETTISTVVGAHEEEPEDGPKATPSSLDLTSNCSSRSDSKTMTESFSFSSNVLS
Sequence of M3 (h) (P20309 whole entry): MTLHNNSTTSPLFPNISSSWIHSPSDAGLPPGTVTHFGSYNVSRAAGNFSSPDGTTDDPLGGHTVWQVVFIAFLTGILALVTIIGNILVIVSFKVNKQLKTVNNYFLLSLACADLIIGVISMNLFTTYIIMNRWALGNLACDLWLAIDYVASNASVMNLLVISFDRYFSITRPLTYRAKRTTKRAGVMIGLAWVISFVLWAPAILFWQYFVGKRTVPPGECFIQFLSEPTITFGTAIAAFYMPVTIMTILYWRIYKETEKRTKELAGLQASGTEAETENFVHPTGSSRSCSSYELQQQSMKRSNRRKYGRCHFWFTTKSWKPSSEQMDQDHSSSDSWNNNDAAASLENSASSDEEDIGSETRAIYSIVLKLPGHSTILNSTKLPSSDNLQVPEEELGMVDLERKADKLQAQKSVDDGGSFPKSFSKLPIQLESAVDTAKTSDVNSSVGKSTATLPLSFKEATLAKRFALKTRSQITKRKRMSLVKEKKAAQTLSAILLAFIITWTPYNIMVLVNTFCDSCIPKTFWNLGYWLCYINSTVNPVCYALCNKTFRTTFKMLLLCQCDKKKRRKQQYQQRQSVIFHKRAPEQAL
T1 sequence (P41968 whole entry): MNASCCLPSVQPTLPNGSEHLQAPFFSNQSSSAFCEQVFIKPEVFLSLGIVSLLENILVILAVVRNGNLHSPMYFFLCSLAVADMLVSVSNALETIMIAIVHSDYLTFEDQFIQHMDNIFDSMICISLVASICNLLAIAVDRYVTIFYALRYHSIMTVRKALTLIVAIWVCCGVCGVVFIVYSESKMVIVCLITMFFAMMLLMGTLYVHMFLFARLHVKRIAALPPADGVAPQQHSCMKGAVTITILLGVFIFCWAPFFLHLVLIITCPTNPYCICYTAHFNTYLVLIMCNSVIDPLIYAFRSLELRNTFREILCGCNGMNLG
Sequence of 5-HT7 (h) (P34969 whole entry): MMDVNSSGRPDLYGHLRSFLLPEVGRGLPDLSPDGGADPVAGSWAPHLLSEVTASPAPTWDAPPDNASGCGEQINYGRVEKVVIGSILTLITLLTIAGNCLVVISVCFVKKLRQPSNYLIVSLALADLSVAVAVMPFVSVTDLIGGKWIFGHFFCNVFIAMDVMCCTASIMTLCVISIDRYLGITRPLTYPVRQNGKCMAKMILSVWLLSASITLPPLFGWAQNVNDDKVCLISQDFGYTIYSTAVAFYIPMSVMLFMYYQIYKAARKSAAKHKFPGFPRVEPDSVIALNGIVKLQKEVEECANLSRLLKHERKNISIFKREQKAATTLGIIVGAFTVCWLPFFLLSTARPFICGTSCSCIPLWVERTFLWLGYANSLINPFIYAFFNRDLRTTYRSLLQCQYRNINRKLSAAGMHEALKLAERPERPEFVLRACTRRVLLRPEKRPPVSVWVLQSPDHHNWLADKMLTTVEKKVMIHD
T8 sequence (P32245 whole entry): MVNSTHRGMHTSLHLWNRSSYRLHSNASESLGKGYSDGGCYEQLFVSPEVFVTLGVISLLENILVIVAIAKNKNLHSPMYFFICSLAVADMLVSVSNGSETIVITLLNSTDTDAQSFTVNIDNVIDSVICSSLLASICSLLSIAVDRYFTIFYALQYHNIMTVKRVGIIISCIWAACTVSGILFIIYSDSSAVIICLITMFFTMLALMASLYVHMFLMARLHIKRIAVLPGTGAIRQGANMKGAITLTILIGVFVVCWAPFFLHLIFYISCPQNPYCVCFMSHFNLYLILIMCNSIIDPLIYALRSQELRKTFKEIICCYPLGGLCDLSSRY
T9 sequence (P50554 28-500): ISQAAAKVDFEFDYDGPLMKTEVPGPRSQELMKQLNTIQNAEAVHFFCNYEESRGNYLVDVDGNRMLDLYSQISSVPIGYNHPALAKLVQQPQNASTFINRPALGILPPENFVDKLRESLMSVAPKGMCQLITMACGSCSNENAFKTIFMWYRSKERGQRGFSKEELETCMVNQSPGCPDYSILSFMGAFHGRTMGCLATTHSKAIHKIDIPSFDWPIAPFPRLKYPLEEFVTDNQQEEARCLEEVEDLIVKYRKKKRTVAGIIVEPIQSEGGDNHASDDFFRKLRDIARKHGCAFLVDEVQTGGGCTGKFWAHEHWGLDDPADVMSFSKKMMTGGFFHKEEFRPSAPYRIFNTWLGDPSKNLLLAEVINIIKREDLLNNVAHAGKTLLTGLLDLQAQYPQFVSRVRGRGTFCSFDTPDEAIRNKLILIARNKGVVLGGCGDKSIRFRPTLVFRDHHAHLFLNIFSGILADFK
T6 sequence (P22001 whole entry): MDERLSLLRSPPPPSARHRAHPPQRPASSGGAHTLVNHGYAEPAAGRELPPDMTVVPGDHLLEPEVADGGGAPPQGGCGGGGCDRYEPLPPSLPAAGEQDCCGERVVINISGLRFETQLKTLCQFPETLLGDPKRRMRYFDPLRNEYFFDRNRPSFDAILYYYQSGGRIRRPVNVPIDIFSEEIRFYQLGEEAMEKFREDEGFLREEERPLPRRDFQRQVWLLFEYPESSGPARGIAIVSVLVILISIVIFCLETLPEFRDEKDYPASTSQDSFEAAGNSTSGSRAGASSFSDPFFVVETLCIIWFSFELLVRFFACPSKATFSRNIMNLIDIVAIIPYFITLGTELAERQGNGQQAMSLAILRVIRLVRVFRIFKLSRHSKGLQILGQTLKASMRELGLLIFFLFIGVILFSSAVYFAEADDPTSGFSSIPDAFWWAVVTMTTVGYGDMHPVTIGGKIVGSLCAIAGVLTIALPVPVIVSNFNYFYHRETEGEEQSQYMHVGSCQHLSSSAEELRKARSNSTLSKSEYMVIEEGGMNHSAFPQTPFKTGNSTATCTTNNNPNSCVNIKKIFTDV
Sequence of rTRPC5 (Q8VD38 1-974): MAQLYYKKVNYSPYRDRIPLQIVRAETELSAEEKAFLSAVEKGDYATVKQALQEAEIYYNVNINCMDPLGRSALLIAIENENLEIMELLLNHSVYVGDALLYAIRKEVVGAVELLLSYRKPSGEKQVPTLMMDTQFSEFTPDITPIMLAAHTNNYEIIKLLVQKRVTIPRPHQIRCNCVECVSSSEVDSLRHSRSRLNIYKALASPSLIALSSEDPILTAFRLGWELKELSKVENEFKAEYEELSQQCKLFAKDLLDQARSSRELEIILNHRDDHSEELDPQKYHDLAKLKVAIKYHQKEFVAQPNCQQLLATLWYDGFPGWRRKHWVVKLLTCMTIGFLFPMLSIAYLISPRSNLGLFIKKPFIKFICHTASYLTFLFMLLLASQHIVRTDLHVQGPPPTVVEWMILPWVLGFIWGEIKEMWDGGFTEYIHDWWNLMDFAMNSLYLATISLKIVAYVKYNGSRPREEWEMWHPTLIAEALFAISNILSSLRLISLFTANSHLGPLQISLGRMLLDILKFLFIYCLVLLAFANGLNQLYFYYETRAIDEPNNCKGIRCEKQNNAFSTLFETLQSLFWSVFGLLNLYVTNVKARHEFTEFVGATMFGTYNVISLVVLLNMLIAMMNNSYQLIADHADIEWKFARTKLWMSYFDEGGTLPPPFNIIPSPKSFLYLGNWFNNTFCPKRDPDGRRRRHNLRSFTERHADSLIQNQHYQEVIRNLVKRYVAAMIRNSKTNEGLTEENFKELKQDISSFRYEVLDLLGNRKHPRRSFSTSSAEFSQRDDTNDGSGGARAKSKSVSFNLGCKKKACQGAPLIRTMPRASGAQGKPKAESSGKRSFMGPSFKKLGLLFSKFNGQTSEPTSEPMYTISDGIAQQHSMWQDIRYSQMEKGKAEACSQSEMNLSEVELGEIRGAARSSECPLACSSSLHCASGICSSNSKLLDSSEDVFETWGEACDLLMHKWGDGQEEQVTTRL

Cn1c(=O)n(CCCO)c(=O)c2c1nc(Oc1cccc(OC(F)(F)F)c1)n2Cc1ccc(Cl)cc1 [HC-608]
inhibition at 1 µM (MC3 (h); 1.0E-06 M, read-out: % Inhibition 1st): 14.4% | inhibition at 1 µM (MC3 (h); 1.0E-06 M, read-out: % Inhibition 2nd): 15.3% | inhibition at 1 µM (MC3 (h); read-out: % Inhibition Mean): 14.8% | % Inhibition 1st [1]: 28% | % Inhibition 2nd [1]: 30.6% | % Inhibition Mean [1]: 29.3% | inhibition at 1 µM (5-HT7 (h); read-out: % Inhibition 1st): 12.1% | inhibition at 1 µM (5-HT7 (h); read-out: % Inhibition 2nd): 10.9% | inhibition at 1 µM (5-HT7 (h); read-out: % Inhibition Mean): 11.5% | inhibition at 1 µM (NK1 (h); read-out: % Inhibition 1st): -2.6% | inhibition at 1 µM (NK1 (h); read-out: % Inhibition 2nd): -13% | inhibition at 1 µM (NK1 (h); read-out: % Inhibition Mean): -7.8% | % Inhibition 1st [2]: -6.7% | % Inhibition 2nd [2]: -5.9% | % Inhibition Mean [2]: -6.3% | inhibition at 1 µM (CaMK2α (h); read-out: % Inhibition 1st): -4% | inhibition at 1 µM (CaMK2α (h); read-out: % Inhibition 2nd): 2.8% | inhibition at 1 µM (CaMK2α (h); read-out: % Inhibition Mean): -0.6% | inhibition at 1 µM (M1 (h); read-out: % Inhibition 1st): -1.6% | inhibition at 1 µM (M1 (h); read-out: % Inhibition 2nd): 5.5% | inhibition at 1 µM (M1 (h); read-out: % Inhibition Mean): 2% | inhibition at 1 µM (β3 (h); read-out: % Inhibition 1st): 0.9% | inhibition at 1 µM (β3 (h); read-out: % Inhibition 2nd): -6.7% | inhibition at 1 µM (β3 (h); read-out: % Inhibition Mean): -2.9% | % Inhibition 1st (PCP): -9% | % Inhibition 2nd (PCP): -0.1% | % Inhibition Mean (PCP): -4.6% | IC50 (hERG): 1150 ± 130 nM | IC50 (rTRPC5): ~0.41 nM | IC50 (Kv1.3): 1050 ± 340 nM | inhibition at 1 µM (MC1; read-out: % Inhibition 1st): 1% | inhibition at 1 µM (MC1; read-out: % Inhibition 2nd): -3.6% | inhibition at 1 µM (MC1; read-out: % Inhibition Mean): -1.3% | inhibition at 1 µM (M3 (h); read-out: % Inhibition 1st): -9% | inhibition at 1 µM (M3 (h); read-out: % Inhibition 2nd): -7.5% | inhibition at 1 µM (M3 (h); read-out: % Inhibition Mean): -8.2% | inhibition at 1 µM (MC4 (h); read-out: % Inhibition 1st): 2.9% | inhibition at 1 µM (MC4 (h); read-out: % Inhibition 2nd): -4.8% | inhibition at 1 µM (MC4 (h); read-out: % Inhibition Mean): -1% | % Inhibition 1st (ATPase (Na+/K+)): 3.0% | % Inhibition 2nd (ATPase (Na+/K+)): -1.5% | % Inhibition Mean (ATPase (Na+/K+)): 0.8%

Cn1c(=O)n(CCCO)c(=O)c2c1nc(Oc1cccc(Cl)c1)n2Cc1ccc(Cl)cc1 [HC-070]
concentration in brain ([3]; iv, 1 mg/kg, 2 h): 299 ± 11 nmol/kg | concentration in brain tissue ([3]; po, 10 mg/kg, 2 h): 525 ± 72 nmol/kg | unbound brain concentration ([3]; po, 10 mg/kg, 2 h): 1.5 nmol/kg | MRTdisp ([3]; male, iv, 1 mg/kg): 1.9 h | MRTtot ([3]; male, po, 10 mg/kg): 4.5 h | inhibition at 1 µM (GABA transaminase; read-out: % Inhibition 1st): -33.1% | inhibition at 1 µM (GABA transaminase; read-out: % Inhibition Mean): -34.6% | Vd (in vivo; [4]): 2.2 L/kg | clearance (in vivo; [4]): 11 mL/min/kg | half-life (in vivo; [4]): 3.6 h | Tmax (in vivo; [5]): 1 h | half-life (in vivo; [5]): 2.7 h | Vd (in vivo; [6]): 1.5 L/kg | clearance (in vivo; [6]): 13 mL/min/kg | concentration at 2 h (in vivo; male, C57BL/6, mouse, iv, 1 mg/kg, CBR (concentration in brain)): 299 ± 11 nM | concentration at 2 h (in vivo; male, C57BL/6, mouse, iv, 1 mg/kg, CPL (concentration in plasma)): 339 ± 66 nM | Cmax (in vivo; [7]): 937 nM | Tmax (in vivo; [7]): 1 h | concentration at 2 h (in vivo; male, C57BL/6, mouse, po, 10 mg/kg, CBR (concentration in brain)): 525 ± 72 nM | concentration at 2 h (in vivo; male, C57BL/6, mouse, po, 10 mg/kg, CPL (concentration in plasma)): 583 ± 108 nM
